Experimental data from the supplement of paper PMC10627819.

How the values were obtained:
Conditions in all cases: main component drawn
B. subtilis 168 [1] = experiment: fitness (endpoint OD595 vs no drug) (fraction); higher = more growth
How it was run: (§1)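 Fitness was defined as the optical density at the transition into stationary phase relative to the robust mean of no-drug control wells. Values were capped at 1. Cultures were started at OD595 0.01 in 384-well plates (30 µl, or 55 µl for S. pneumoniae) in TSB, LB Lennox or CY at 37 °C. OD595 was recorded every 30 min over 14 h, with the first reading subtracted as background.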

S. aureus Newman [2] = experiment: as above
How it was run: as §1

B. subtilis 168 [3] = experiment: Bliss interaction score (quartile over a dose matrix) (fitness difference); higher = more antagonism (negative = synergy)
How it was run: (§2)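 At entry into stationary phase, OD595 was recorded and divided by the robust mean of the no-drug wells on that plate, with any value above 1 set to 1. This gives the fitness measure used throughout. Single-drug fitness was inferred from combination data, and the Bliss score, observed minus product-expected fitness, is shown as quartiles across technical, biological and donor/recipient replicates.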

S. pneumoniae D39V = experiment: as above
How it was run: as §2

S. aureus Newman [4] = experiment: as above
How it was run: as §2

S. aureus DSM 20231 = experiment: as above
How it was run: as §2
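Wherever Bliss interaction score (quartile over a dose matrix) is given: first quartile when negative (synergy) and third quartile when positive (antagonism).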

CC[C@H](C)[C@H](N)C1=N[C@H](C(=O)N[C@@H](CC(C)C)C(=O)N[C@H](CCC(=O)O)C(=O)N[C@H](C(=O)N[C@H]2CCCCNC(=O)[C@H](CC(N)=O)NC(=O)[C@@H](CC(=O)O)NC(=O)[C@H](Cc3cnc[nH]3)NC(=O)[C@@H](Cc3ccccc3)NC(=O)[C@H]([C@@H](C)CC)NC(=O)[C@@H](CCCN)NC2=O)[C@@H](C)CC)CS1 [Bacitracin] + CO/N=C(\C(=O)N[C@@H]1C(=O)N2C(C(=O)O)=C(COC(N)=O)CS[C@H]12)c1ccco1 [Cefuroxime]
fitness, B. subtilis 168 [1]
Conditions	first compound 37.5 µg/mL	first compound 75 µg/mL	first compound 150 µg/mL
partner 0.04875 µg/mL	0.691	0.612	–
partner 0.0975 µg/mL	0.629	0.529	0.275
partner 0.195 µg/mL	0.338	0.334	0.0599

fitness, one replicate
Conditions	partner 0.04875 µg/mL	partner 0.0975 µg/mL	partner 0.195 µg/mL	partner 0.39 µg/mL	partner 0.78 µg/mL	partner 1.562 µg/mL	partner 3.125 µg/mL	partner 6.25 µg/mL
B. subtilis 168 [1], first compound 37.5 µg/mL	–	–	–	0.293	0.266	0.419	0.351	0.269
B. subtilis 168 [1], first compound 75 µg/mL	–	–	–	0.089	0.0839	0.352	0.323	0.257
B. subtilis 168 [1], first compound 150 µg/mL	–	–	–	0.0217	0.0185	0.306	0.238	0.155
S. aureus Newman [2], first compound 18.75 µg/mL	0.634	0.599	0.287	–	–	–	–	–
S. aureus Newman [2], first compound 37.5 µg/mL	0.0709	0.0498	0.025	–	–	–	–	–
S. aureus Newman [2], first compound 75 µg/mL	0.0097	0.0027	0.0172	–	–	–	–	–

Conditions	Bliss interaction score
B. subtilis 168 [3]	-0.0903
S. aureus DSM 20231	-0.188
S. aureus Newman [4]	-0.0659
S. pneumoniae D39V	0.0554

CC[C@H](C)[C@H](N)C1=N[C@H](C(=O)N[C@@H](CC(C)C)C(=O)N[C@H](CCC(=O)O)C(=O)N[C@H](C(=O)N[C@H]2CCCCNC(=O)[C@H](CC(N)=O)NC(=O)[C@@H](CC(=O)O)NC(=O)[C@H](Cc3cnc[nH]3)NC(=O)[C@@H](Cc3ccccc3)NC(=O)[C@H]([C@@H](C)CC)NC(=O)[C@@H](CCCN)NC2=O)[C@@H](C)CC)CS1 [Bacitracin] + COc1c(N2C[C@@H]3CCCN[C@@H]3C2)c(F)cc2c(=O)c(C(=O)O)cn(C3CC3)c12 [Moxifloxacin]
fitness
Conditions	partner 0.0075 µg/mL	partner 0.015 µg/mL	partner 0.03 µg/mL	partner 0.0312 µg/mL	partner 0.0625 µg/mL	partner 0.125 µg/mL	partner 2 µg/mL	partner 4 µg/mL	partner 8 µg/mL
B. subtilis 168 [1], first compound 37.5 µg/mL	–	–	–	0.0427	0.0342	0.0345	0.0202	0.0156	0.0081
B. subtilis 168 [1], first compound 75 µg/mL	–	–	–	0.022	0.026	0.0158	0.0179	0.0161	0.009
B. subtilis 168 [1], first compound 150 µg/mL	–	–	–	0.019	0.0046	0.0203	0.0204	0.0121	0.0111
S. aureus Newman [2], first compound 18.75 µg/mL	0.614	0.482	0.0523	–	–	–	–	–	–
S. aureus Newman [2], first compound 37.5 µg/mL	0.133	0.0255	0.0043	–	–	–	–	–	–
S. aureus Newman [2], first compound 75 µg/mL	0.0091	0.0053	0.0025	–	–	–	–	–	–

Conditions	Bliss interaction score
B. subtilis 168 [3]	-0.0316
S. aureus DSM 20231	0.0317
S. aureus Newman [4]	-0.078
S. pneumoniae D39V	0.0806

CC[C@H](C)[C@H](N)C1=N[C@H](C(=O)N[C@@H](CC(C)C)C(=O)N[C@H](CCC(=O)O)C(=O)N[C@H](C(=O)N[C@H]2CCCCNC(=O)[C@H](CC(N)=O)NC(=O)[C@@H](CC(=O)O)NC(=O)[C@H](Cc3cnc[nH]3)NC(=O)[C@@H](Cc3ccccc3)NC(=O)[C@H]([C@@H](C)CC)NC(=O)[C@@H](CCCN)NC2=O)[C@@H](C)CC)CS1 [Bacitracin] + COc1ccc(C[C@H](N)C(=O)N[C@H]2[C@@H](O)[C@H](n3cnc4c(N(C)C)ncnc43)O[C@@H]2CO)cc1 [Puromycin]
fitness
Conditions	first compound 18.75 µg/mL	first compound 37.5 µg/mL	first compound 75 µg/mL	first compound 150 µg/mL
B. subtilis 168 [1], partner 0.39 µg/mL	–	0.901	0.875	0.793
B. subtilis 168 [1], partner 0.78 µg/mL	–	0.959	0.958	–
B. subtilis 168 [1], partner 1.56 µg/mL	–	0.903	0.881	–
S. aureus Newman [2], partner 0.39 µg/mL	0.693	–	0.0319	–
S. aureus Newman [2], partner 0.78 µg/mL	0.687	0.197	0.0272	–
S. aureus Newman [2], partner 1.56 µg/mL	0.685	0.0934	0.0307	–

Conditions	Bliss interaction score
B. subtilis 168 [3]	0.0815
S. aureus DSM 20231	-0.0671
S. aureus Newman [4]	-0.0486
S. pneumoniae D39V	0.048

CC[C@H](C)[C@H](N)C1=N[C@H](C(=O)N[C@@H](CC(C)C)C(=O)N[C@H](CCC(=O)O)C(=O)N[C@H](C(=O)N[C@H]2CCCCNC(=O)[C@H](CC(N)=O)NC(=O)[C@@H](CC(=O)O)NC(=O)[C@H](Cc3cnc[nH]3)NC(=O)[C@@H](Cc3ccccc3)NC(=O)[C@H]([C@@H](C)CC)NC(=O)[C@@H](CCCN)NC2=O)[C@@H](C)CC)CS1 [Bacitracin] + COc1cccc2c1C(=O)c1c(O)c3c(c(O)c1C2=O)C[C@@](O)(C(=O)CO)C[C@@H]3O[C@H]1C[C@H](N)[C@H](O)[C@H](C)O1 [Doxorubicin]
fitness
Conditions	partner 0.625 µg/mL	partner 1.25 µg/mL	partner 2.5 µg/mL
B. subtilis 168 [1], first compound 37.5 µg/mL	0.889	0.851	0.686
B. subtilis 168 [1], first compound 75 µg/mL	0.827	0.792	–
B. subtilis 168 [1], first compound 150 µg/mL	0.691	0.653	–
S. aureus Newman [2], first compound 18.75 µg/mL	0.607	0.598	0.513
S. aureus Newman [2], first compound 75 µg/mL	0.0711	0.0343	0.0074

Conditions	Bliss interaction score
B. subtilis 168 [3]	0.0797
S. aureus DSM 20231	0.115
S. aureus Newman [4]	0.0938
S. pneumoniae D39V	-0.0704

CC[C@H](C)[C@H](N)C1=N[C@H](C(=O)N[C@@H](CC(C)C)C(=O)N[C@H](CCC(=O)O)C(=O)N[C@H](C(=O)N[C@H]2CCCCNC(=O)[C@H](CC(N)=O)NC(=O)[C@@H](CC(=O)O)NC(=O)[C@H](Cc3cnc[nH]3)NC(=O)[C@@H](Cc3ccccc3)NC(=O)[C@H]([C@@H](C)CC)NC(=O)[C@@H](CCCN)NC2=O)[C@@H](C)CC)CS1 [Bacitracin] + C[C@@H]1O[C@@H]1P(=O)(O)O [Fosfomycin]
fitness
Conditions	first compound 18.75 µg/mL	first compound 37.5 µg/mL	first compound 75 µg/mL	first compound 150 µg/mL
B. subtilis 168 [1], partner 1.562 µg/mL	–	0.697	0.662	0.607
B. subtilis 168 [1], partner 3.124 µg/mL	–	0.61	0.594	0.488
B. subtilis 168 [1], partner 6.248 µg/mL	–	0.501	0.51	0.427
S. aureus Newman [2], partner 0.781 µg/mL	0.507	0.0984	0.0911	–
S. aureus Newman [2], partner 1.562 µg/mL	0.471	–	0.0362	–
S. aureus Newman [2], partner 3.124 µg/mL	0.174	0.0141	0.0222	–

Conditions	Bliss interaction score
B. subtilis 168 [3]	0.0941
S. aureus DSM 20231	0.109
S. aureus Newman [4]	0.102
S. pneumoniae D39V	-0.0469

CC[C@H](C)[C@H](N)C1=N[C@H](C(=O)N[C@@H](CC(C)C)C(=O)N[C@H](CCC(=O)O)C(=O)N[C@H](C(=O)N[C@H]2CCCCNC(=O)[C@H](CC(N)=O)NC(=O)[C@@H](CC(=O)O)NC(=O)[C@H](Cc3cnc[nH]3)NC(=O)[C@@H](Cc3ccccc3)NC(=O)[C@H]([C@@H](C)CC)NC(=O)[C@@H](CCCN)NC2=O)[C@@H](C)CC)CS1 [Bacitracin] + C[n+]1ccc(-c2cc[n+](C)cc2)cc1 [Paraquat]
fitness
Conditions	first compound 18.75 µg/mL	first compound 37.5 µg/mL	first compound 75 µg/mL	first compound 150 µg/mL
B. subtilis 168 [1], partner 1.25 µg/mL	–	0.931	0.924	0.844
B. subtilis 168 [1], partner 2.5 µg/mL	–	0.886	0.846	0.826
B. subtilis 168 [1], partner 5 µg/mL	–	0.746	0.656	–
S. aureus Newman [2], partner 1.25 µg/mL	0.673	0.276	0.0637	–
S. aureus Newman [2], partner 2.5 µg/mL	0.725	0.315	0.0696	–
S. aureus Newman [2], partner 5 µg/mL	0.669	0.349	0.0708	–

Conditions	Bliss interaction score
B. subtilis 168 [3]	0.115
S. aureus DSM 20231	-0.0542
S. aureus Newman [4]	0.0836
S. pneumoniae D39V	0.0921

CC[C@H](C)[C@H](N)C1=N[C@H](C(=O)N[C@@H](CC(C)C)C(=O)N[C@H](CCC(=O)O)C(=O)N[C@H](C(=O)N[C@H]2CCCCNC(=O)[C@H](CC(N)=O)NC(=O)[C@@H](CC(=O)O)NC(=O)[C@H](Cc3cnc[nH]3)NC(=O)[C@@H](Cc3ccccc3)NC(=O)[C@H]([C@@H](C)CC)NC(=O)[C@@H](CCCN)NC2=O)[C@@H](C)CC)CS1 [Bacitracin] + Cc1cc(NS(=O)(=O)c2ccc(N)cc2)no1 [Sulfamethoxazol]
fitness, one replicate
Conditions	first compound 18.75 µg/mL	first compound 37.5 µg/mL	first compound 75 µg/mL	first compound 150 µg/mL
B. subtilis 168 [1], partner 0.5 µg/mL	–	0.947	0.998	≥ 1
S. aureus Newman [2], partner 8 µg/mL	0.729	0.454	0.0253	–

fitness
Conditions	partner 1 µg/mL	partner 2 µg/mL	partner 4 µg/mL
B. subtilis 168 [1], first compound 37.5 µg/mL	0.856	0.855	0.941
B. subtilis 168 [1], first compound 75 µg/mL	0.832	0.851	0.852
S. aureus Newman [2], first compound 18.75 µg/mL	0.775	0.76	0.819
S. aureus Newman [2], first compound 75 µg/mL	0.0141	0.009	0.0028

Conditions	Bliss interaction score
B. subtilis 168 [3]	0.0966
S. aureus DSM 20231	-0.0266
S. aureus Newman [4]	0.104
S. pneumoniae D39V	0.0767
